Consider 36 compounds from PMC4444576, “Prospective performance evaluation of selected common virtual screening tools. Case study: Cyclooxygenase (COX) 1 and 2” (European Journal of Medicinal Chemistry, 2015).

Assay [1] relates to COX. As to the kind of experiment: Biological testing for COX-inhibiting activity, overall outcome on both isoforms. In kind it is biochemical. As to conditions: for COX isoform selectivity: COX-1 versus COX-2.
Assay [2] addresses T1, human recombinant COX-2 (Homo sapiens, UniProt P35354).
T1 construct: purchased Sigma–Aldrich
T1 sequence (P35354 18-604): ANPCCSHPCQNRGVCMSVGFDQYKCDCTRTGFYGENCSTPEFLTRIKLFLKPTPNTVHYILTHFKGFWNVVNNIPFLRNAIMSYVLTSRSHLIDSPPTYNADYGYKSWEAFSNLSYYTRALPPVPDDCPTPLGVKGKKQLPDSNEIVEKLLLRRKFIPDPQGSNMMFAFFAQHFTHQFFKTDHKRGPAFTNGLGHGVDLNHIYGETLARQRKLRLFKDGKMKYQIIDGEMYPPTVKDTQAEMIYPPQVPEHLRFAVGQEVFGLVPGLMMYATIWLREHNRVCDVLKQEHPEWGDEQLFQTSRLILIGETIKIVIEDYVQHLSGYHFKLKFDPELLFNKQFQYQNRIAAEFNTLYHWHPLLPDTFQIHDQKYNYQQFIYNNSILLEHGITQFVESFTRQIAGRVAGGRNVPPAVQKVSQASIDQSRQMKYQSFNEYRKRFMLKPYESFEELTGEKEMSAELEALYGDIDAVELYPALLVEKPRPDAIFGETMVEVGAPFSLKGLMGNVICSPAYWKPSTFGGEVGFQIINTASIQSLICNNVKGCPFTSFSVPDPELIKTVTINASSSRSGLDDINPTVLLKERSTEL
As to the kind of experiment: COX-2 inhibition assay (PGE2 EIA). It counts as biochemical. Particulars: for inhibition at 20 µM: read-out: % inhibition at 20µM, COX-2.

In assay [3] the target is T2, ram seminal vesicle COX-1 (Ovis aries, UniProt P05979).
T2 construct: ram seminal vesicle COX-1 (1 U) (Sigma–Aldrich); purchased Sigma–Aldrich; host or cells: ram seminal vesicle (tissue of origin)
T2 sequence (P05979 25-600): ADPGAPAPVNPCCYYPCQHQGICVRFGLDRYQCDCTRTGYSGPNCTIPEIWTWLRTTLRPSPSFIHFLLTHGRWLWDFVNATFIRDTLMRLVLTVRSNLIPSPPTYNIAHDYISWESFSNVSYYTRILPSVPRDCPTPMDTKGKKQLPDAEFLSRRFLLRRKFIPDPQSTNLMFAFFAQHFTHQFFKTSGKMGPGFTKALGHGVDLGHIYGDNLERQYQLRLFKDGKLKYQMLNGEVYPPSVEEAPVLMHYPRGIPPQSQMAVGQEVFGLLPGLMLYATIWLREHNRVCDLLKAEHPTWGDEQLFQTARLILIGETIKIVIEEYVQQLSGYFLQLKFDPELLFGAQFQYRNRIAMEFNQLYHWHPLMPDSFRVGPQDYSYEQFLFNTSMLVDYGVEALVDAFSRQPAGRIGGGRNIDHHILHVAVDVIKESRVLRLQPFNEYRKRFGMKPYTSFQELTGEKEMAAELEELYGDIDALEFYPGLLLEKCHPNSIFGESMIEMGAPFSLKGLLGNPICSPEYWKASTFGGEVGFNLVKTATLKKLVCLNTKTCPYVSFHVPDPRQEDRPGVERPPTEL
Nature of the assay: COX-1 inhibition assay (PGE2 EIA). Particulars: for inhibition at 20 µM: read-out: % inhibition at 20µM, COX-1. In kind it is biochemical.

In assay [4] the test system is COX. Particulars: data from the literature, cited from earlier work.
Setting [5] is: biological testing of this study.

The structures appear in SMILES notation. Like-named read-outs stand apart in the source and are kept apart here.

For `O=C(O)c1ccc(Cl)c(Cl)c1` [3,4-dichlorobenzoic acid], the result in assay [1] (setting [5]) was Inactive. Also, the inhibition at 20 µM in assay [2] (20 µM, triplicates) was 0.1 ± 3.3%; in assay [3] (triplicates), -1.8 ± 14.3%.
With `C#C[C@]1(O)CC[C@H]2[C@@H]3CCc4cc(OC)ccc4[C@H]3CC[C@@]21C` [17α-ethinylestradiol-3-methylether], the result in assay [1] was Inactive. In addition, the “% inhibition at 20µM, COX-2” value in assay [2] was -10.9 ± 31.4%. Also, the “% inhibition at 20µM, COX-1” value in assay [3] (triplicates) came out at 2.6 ± 11.9%.
In the case of `C#C[C@]1(O)CC[C@H]2[C@@H]3CCc4cc(O)ccc4[C@H]3CC[C@@]21C` [17α-ethinylestradiol], the outcome in assay [1] (setting [5]) was Inactive. Further, the inhibition at 20 µM in assay [2] (20 µM, triplicates) was -5.2 ± 11.6%; in assay [3] (triplicates) it was 0.4 ± 16.7%.
As to `CC(C)Cc1ccc([C@H](C)C(=O)O)cc1` [(S)-ibuprofen], in assay [4], the Activity entry was “Active [61]”.
Regarding `O=S(=O)([O-])c1ccc(N=Nc2ccc(O)cc2O)cc1.[Na+]` [Acid orange 6], in assay [1] (setting [5]), the outcome was Inactive. Moreover, the “% inhibition at 20µM, COX-2” value in assay [2] (20 µM, triplicates) is reported as -0.1 ± 5.6%. In assay [3] (triplicates), the “% inhibition at 20µM, COX-1” value was -1.2 ± 6.0%.
As for `C=CCOc1ccc(CC(=O)O)cc1Cl` [Alclofenac], the Activity result in assay [4] is “Active [40]”.
In the case of `NS(=O)(=O)c1cc(-c2nnn[nH]2)c(NCc2cccs2)cc1Cl` [Azosemide], the result in assay [1] (setting [5]) was Inactive. Moreover, the inhibition at 20 µM in assay [2] (20 µM, triplicates) was -1.1 ± 4.7%; in assay [3] (triplicates), -9.9 ± 25.6%.
With `O=S(=O)([O-])CCNc1ccc(S(=O)(=O)c2ccc(NCCS(=O)(=O)[O-])cc2)cc1.[Na+].[Na+]` [Baludon], the result in assay [1] (setting [5]) was Inactive. The “% inhibition at 20µM, COX-2” value in assay [2] (20 µM, triplicates) is given as -3.7 ± 15.4%. The “% inhibition at 20µM, COX-1” value in assay [3] (triplicates) is -8.4 ± 8.7%.
Take `NS(=O)(=O)c1cc2c(cc1Cl)N=C(CSCc1ccccc1)NS2(=O)=O` [Benzothiazide]: the result in assay [1] (setting [5]) was Inactive. Moreover, the inhibition at 20 µM was -7.4 ± 25.8% in assay [2] (20 µM, triplicates) and 16.6 ± 18.6% in assay [3] (triplicates).
In the case of `COc1ccc2cc3[n+](cc2c1OC)CCc1cc2c(cc1-3)OCO2` [Berberin], the Activity result was “Inactive [50]” in assay [4] and “not by direct inhibition of the enzyme” in assay [4] (listed as Berberine).
`CC(C)NCC(O)COc1ccc(COCCOC(C)C)cc1` (centres unmarked) [Bisoprolol]: the outcome in assay [1] (setting [5]) was Inactive. The inhibition at 20 µM in assay [2] (20 µM, triplicates) was 10.2 ± 7%; in assay [3] (triplicates) it was -1.4 ± 7.7%.
As to `CC(C(=O)O)c1ccc2c(c1)[nH]c1ccc(Cl)cc12` (centres unmarked) [Carprofen], the Activity entry in assay [4] was “Active [51]”.
Take `O=C(N[C@H](CO)[C@H](O)c1ccc([N+](=O)[O-])cc1)C(Cl)Cl` [Chloramphenicol]: in assay [1] (setting [5]), the result was Inactive. Further, the inhibition at 20 µM in assay [2] (20 µM, triplicates) was 10.7 ± 10.7%; in assay [3] (triplicates), -1.7 ± 9.5%.
Turning to `CC(C)(Oc1ccc(Cl)cc1)C(=O)O` [Clofibric acid], in assay [1] (setting [5]), the result was Inactive. The inhibition at 20 µM was determined as 7.1 ± 18.7% in assay [2] (20 µM, triplicates) and 36.4 ± 17.4% in assay [3] (triplicates).
`C/C=C(/C(=C/C)c1ccc(OC(C)=O)cc1)c1ccc(OC(C)=O)cc1` [Dienestrol diacetate (5), Dienestrol diacetate]: the COX isoform selectivity result in assay [1] was “unselective COX-inhibitor”; in assay [1] (listed as dienestrol diactetate (5)), “inhibited both isoforms”. For the same compound, in assay [1] (setting [5]), the outcome was Active. Moreover, the IC50 in assay [2] (average of at least two independent experiments, triplicates, read-out: IC50 COX-2) was found to be 2 ± 0.9 µM; in assay [3] (average of at least two independent experiments, triplicates, read-out: IC50 COX-1), 4.2 ± 1.5 µM.
Turning to `COCCCN1CCN(c2ccccc2OC)CC1` [Dimetholizine], the outcome in assay [1] (setting [5]) was Inactive. Moreover, the inhibition at 20 µM in assay [2] (20 µM, triplicates) was -8.7 ± 8.2%; in assay [3] (triplicates), -15.1 ± 23.4%.
As for `O=C(O)CCC(=O)c1ccc(-c2ccccc2)cc1` [Fenbufen], the Activity result in assay [4] was “Active [52]”.
Turning to `Cc1c(Nc2ncccc2C(=O)O)cccc1C(F)(F)F` [Flunixin meglumine], the Activity entry in assay [4] was “Active [53]”.
For the compound `CC/C(=C(/CC)c1ccc(OP(=O)(O)O)cc1)c1ccc(OP(=O)(O)O)cc1` [Fosfestrol], in assay [1] (setting [5]), the outcome was Inactive. Besides, the inhibition at 20 µM in assay [2] (20 µM, triplicates) was 26 ± 5%; in assay [3] (triplicates), 29.1 ± 9.7%.
Turning to `NS(=O)(=O)c1cc(C(=O)O)c(NCc2ccco2)cc1Cl` [Furosemid], the outcome in assay [1] was Inactive. Further, in assay [2], the “% inhibition at 20µM, COX-2” value was 8.7 ± 8.9%. Besides, the “% inhibition at 20µM, COX-1” value in assay [3] (triplicates) was -1.07 ± 17.3%.
For the compound `O=C(OCC(O)CO)c1ccccc1Nc1ccnc2cc(Cl)ccc12` (centres unmarked) [Glafenine], the outcome in assay [1] (setting [5]) was Inactive. For the same compound, the inhibition at 20 µM in assay [2] (20 µM, triplicates) stood at 3.5 ± 6%; in assay [3] (triplicates) it was 3.7 ± 34.6%.
`COc1ccc2c(c1)c(CC(=O)O)c(C)n2C(=O)c1ccc(Cl)cc1` [Indometacin]: the Activity result in assay [4] was “Active [54]”.
Consider `N[C@@H](Cc1cc(I)c(Oc2cc(I)c(O)c(I)c2)c(I)c1)C(=O)O` [Levothyroxin], for which the result in assay [1] (setting [5]) was Inactive. The inhibition at 20 µM in assay [2] (20 µM, triplicates) is 14.9 ± 18.3%; in assay [3] (triplicates), 12.9 ± 10.3%.
Taken in the same sequence, the figures for `C#C[C@]1(O)CC[C@H]2[C@@H]3CCC4=C(CCC(=O)C4)[C@H]3CC[C@@]21C` [Norethynodrel] were “Inactive”, -11.6 ± 32.2% and 21 ± 10.9%.
Turning to `CC(=O)Oc1ccc(C2(c3ccc(OC(C)=O)cc3)C(=O)Nc3ccccc32)cc1` [Oxyphenisatin acetate], the result in assay [1] (setting [5]) was Inactive. For the same compound, the inhibition at 20 µM in assay [2] (20 µM, triplicates) is -1.8 ± 11.1%; in assay [3] (triplicates) it was -3.2 ± 27.9%.
As for `CNC(=O)Oc1ccc(-c2ccccc2)cc1` [Paxamate (4), Paxamate], the COX isoform selectivity result in assay [1] is “COX-1 selective”. For the same compound, the outcome in assay [1] (setting [5]) was Active. Besides, the results for the IC50 in assay [2] and in assay [3] were above 20 µM and 17.1 ± 3.1 µM, respectively.
`O=S(=O)(O)Oc1ccc(C(c2ccc(OS(=O)(=O)O)cc2)c2ccccn2)cc1` [Picosulfate sodium]: in assay [1] (setting [5]), the result was Inactive. For the same compound, the inhibition at 20 µM in assay [2] (20 µM, triplicates) was -11 ± 29.4%; in assay [3] (triplicates) it was 8.3 ± 21%.
On the same counts, the results for `COC(=O)c1ccccc1C(=O)c1ccc(OCCN2CCCCC2)cc1` [Pitofenone] are “Inactive”, 14.1 ± 18.4% and -4.7 ± 16.2%.
On the same counts, the results for `CNC(=C[N+](=O)[O-])NCCSCc1ccc(CN(C)C)o1` [Ranitidine] are “Inactive”, 12.7 ± 5.1% and -11 ± 9.6%.
Take `CC(C)(Oc1ccc(Cl)cc1)C(=O)OCCCOC(=O)c1cccnc1` [Ronifibrate]: the outcome in assay [1] (setting [5]) was Inactive. In assay [2] (20 µM, triplicates), the “% inhibition at 20µM, COX-2” value came to 33.0 ± 5.7%. Besides, the “% inhibition at 20µM, COX-1” value in assay [3] (triplicates) stood at 28.2 ± 11.6%.
Turning to `O=S(O)CNc1ccc(S(=O)(=O)c2ccc(NCS(=O)O)cc2)cc1` [Sulfoxone], the result in assay [1] (setting [5]) was Inactive. The inhibition at 20 µM in assay [2] (20 µM, triplicates) was -0.7 ± 6.4%; in assay [3] (triplicates), -2.1 ± 16.4%.
For `NS(=O)(=O)c1ccc(N2CCCCS2(=O)=O)cc1` [Sulthiame], the result in assay [1] (setting [5]) was Inactive. In addition, the inhibition at 20 µM is -0.9 ± 13.6% in assay [2] (20 µM, triplicates) and 3.7 ± 9.3% in assay [3] (triplicates).
As to `Cc1ncc(C[n+]2csc(CCO)c2C)c(N)n1` [Thiamine monochloride], the outcome in assay [1] (setting [5]) was Inactive. In addition, the inhibition at 20 µM in assay [2] (20 µM, triplicates) was -3.2 ± 6.9%; in assay [3] (triplicates), 13.8 ± 15.6%.
On the same counts, the results for `O=C(O)COc1ccc(C(=O)c2cccs2)c(Cl)c1Cl` [Ticrynafen] are “Inactive”, 18.4 ± 6.1% and -6.2 ± 6.1%.
With `[Cl-].c1ccc(-c2nn(-c3ccccc3)[n+](-c3ccccc3)n2)cc1` [Triphenyltetrazol], in assay [1] (setting [5]), the result was Inactive. In addition, in assay [2] (20 µM, triplicates), the “% inhibition at 20µM, COX-2” value amounted to 2.9 ± 7.3%. Moreover, in assay [3] (triplicates), the “% inhibition at 20µM, COX-1” value is recorded as 13.6 ± 14.4%.
Regarding `CC(=O)Nc1ccc(-c2ccccc2)cc1` [p-phenylacetanilide], the outcome in assay [1] (setting [5]) was Inactive. Moreover, the “% inhibition at 20µM, COX-2” value in assay [2] (20 µM, triplicates) was -1.6 ± 8.3%. Further, the “% inhibition at 20µM, COX-1” value in assay [3] (triplicates) was found to be 5.8 ± 18.3%.
